Values of other authors as cited in patent US8664239B2, “Tacrolimus for improved treatment of transplant patients” (Veloxis Pharmaceuticals A/S, priority 2007, dated 2014).
Where two headings read alike, the source gives them in different places.

Legend:
[1] = not given; remark: listed apart in the source

bioavailability (after oral administration): ≤ 20%
mean time-to-peak concentration (tmax) (oral administration, healthy subjects or kidney or liver transplanted patients): 1 to 2 h
solubility ([1]; in chloroform): very soluble
solubility ([1]; in ethanol): freely soluble
solubility ([1]; in methanol): very soluble
solubility ([1]; in water): practically insoluble
Compound: C=CC[C@@H]1/C=C(\C)C[C@H](C)C[C@H](OC)[C@H]2O[C@@](O)(C(=O)C(=O)N3CCCC[C@H]3C(=O)O[C@H](/C(C)=C/[C@@H]3CC[C@@H](O)[C@H](OC)C3)[C@H](C)[C@@H](O)CC1=O)[C@H](C)C[C@@H]2OC [Tacrolimus]
